Test [1] has as its target T1, hENPP2 (UniProtKB/SwissProt Sequence ref Q13822) (Homo sapiens (Human), UniProt Q13822). Description: LPC hENPP2 assay (choline release, LPC as substrate). The class given is biochemical. In a few lines: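 Detection is coupled: choline oxidase produces peroxide, which HRP uses to form quinoneimine dye from TOOS and 4-aminoantipyrine, read at 555 nm. The reaction is stopped with 20 mM EGTA in the developer mix, then incubated 30 min at room temperature; inhibition lowers signal.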

In test [2] the target is T1, hENPP2. Description: FS3 hENPP2 assay (fluorogenic substrate FS-3). The format is biochemical. As to conditions: hENPP2, FS-3 as substrate. The protocol: Compound IC50 values are determined in a fluorescent hENPP2 (UniProtKB/SwissProt Sequence ref Q13822) biochemical assay using the fluorogenic autotaxin substrate FS-3 as substrate. FS-3 is a doubly labeled analog of LPC wherein the fluorophore is quenched through intramolecular energy transfer. Without hENPP2, the emission of the probe is quenched. If the substrate is hydrolyzed by hENPP2, the emission of the probe is not quenched anymore resulting in a fluorescence increase. Inhibition of hENPP2 by compounds will result in a decrease of the signal.
10 μL of a dilution series of compound, starting from 20 μM highest concentration, ⅕ dilution, is added to the wells. hENPP2 is used at a final concentration of 0.4 μg/mL or 0.64 μg/mL (it will be appreciated by the skilled person that the potency read out is independent of the enzyme concentration). The enzyme is diluted in 50 mM Tris-HCl pH 8.0, 250 mM NaCl, 5 mM KCl, 1 mM MgCl2, 1 mM CaCl2, 0.1% fatty acid free BSA in a total volume of 20 μL. Enzyme mixture is added to compounds and the resulting mixture is incubated for 30 min at room temperature under shaking. The reaction is started by the addition of 20 μL of 0.75 μM FS-3 diluted in the same buffer as described above and the mixture is incubated at 30° C. for 30 min. Fluorescence is read on the Envision (Excitation 485 nm, emission 520 nm).

Bounds are passed on as bounds.

As to `CCc1nc2ccc(N3CCCC(CNS(C)(=O)=O)C3)nn2c1N(C)c1nc(-c2ccc(F)cc2)cs1` (stereo not shown) [Cpd 102, N-((1-(2-ethyl-3-((4-(4-fluorophenyl)thiazol-2-yl)(methyl)amino)imidazo[1,2-b]pyridazin-6-yl)piperidin-3-yl)methyl) methanesulfonamide], the results for the IC50 at hENPP2 [1] and against hENPP2 [2] were above 1000 nM and 0.01 to 25 nM, respectively.
As to `CCc1nc2ccc(N3CC4CN(S(C)(=O)=O)CC4C3)nn2c1N(C)c1nc(-c2ccc(F)cc2)cs1` (stereo not shown) [Compound 123, N-(2-ethyl-6-(5-(methylsulfonyl)hexahydropyrrolo[3,4-c]pyrrol-2(1H)-yl)imidazo[1,2-b]pyridazin-3-yl)-4-(4-fluorophenyl)-N-methylthiazol-2-amine], the values for the IC50 against hENPP2 [1] and at hENPP2 [2] were above 1000 nM and 0.01 to 25 nM, respectively.
Regarding `CCc1nc2cnc(N3CCN(CC(=O)N4CCCC4)CC3)cn2c1N(C)c1nc(-c2ccc(F)cc2)c(C#N)s1` [Cpd 8, 2-((2-ethyl-6-(4-(2-oxo-2-(pyrrolidin-1-yl)ethyl)piperazin-1-yl)imidazo[1,2-a]pyrazin-3-yl)(methyl)amino)-4-(4-fluorophenyl) thiazole-5-carbonitrile], the values for the IC50 against hENPP2 [1] and against hENPP2 [2] were 100 to 500 nM and 0.01 to 25 nM, respectively.
Regarding `CCc1nc2ccc(C3=CCN(S(C)(=O)=O)CC3)nn2c1N(C)c1nc(-c2ccc(F)cc2)cs1` [Cpd 194, N-(2-ethyl-6-(1-(methylsulfonyl)-1,2,3,6-tetrahydropyridin-4-yl)imidazo[1,2-b]pyridazin-3-yl)-4-(4-fluorophenyl)-N-methylthiazol-2-amine], the figures for the IC50 against hENPP2 [1] and on hENPP2 [2] were above 1000 nM and 0.01 to 25 nM, respectively.
In the case of `CCc1nc2ccc(N3CCN(C(=O)C4CCCO4)CC3)nn2c1N(C)c1nc(-c2ccc(F)cc2)cs1` (stereo not drawn) [Cpd 47, (4-(2-ethyl-3-((4-(4-fluorophenyl)thiazol-2-yl)(methyl)amino)imidazo[1,2-b]pyridazin-6-yl)piperazin-l-yl)(tetrahydrofuran-2-yl)methanone], the figures for the IC50 at hENPP2 [1] and at hENPP2 [2] were above 1000 nM and 0.01 to 25 nM, respectively.
On to `CCc1nc2ccc(N3CCN(CC(=O)N4CCCC4)[C@H](CO)C3)nn2c1N(C)c1nc(-c2ccc(F)cc2)cs1` [Compound 64, (S)-2-(4-(2-ethyl-3-((4-(4-fluorophenyl)thiazol-2-yl)(methyl)amino)imidazo[1,2-b]pyridazin-6-yl)-2-(hydroxymethyl)piperazin-1-yl)-1-(pyrrolidin-1-yl)ethanone], for which the IC50 on hENPP2 [1] lay within 100 to 500 nM; on hENPP2 [2] it was 0.01 to 25 nM.
Regarding `CCc1nc2ccc(N3CCCC(CO)C3)nn2c1N(C)c1nc(-c2ccc(F)cc2)cs1` (stereo not shown) [Cpd 94, (1-(2-ethyl-3-((4-(4-fluorophenyl)thiazol-2-yl)(methyl)amino)imidazo[1,2-b]pyridazin-6-yl)piperidin-3-yl)methanol], the IC50 against hENPP2 [1] was above 1000 nM; against hENPP2 [2], 0.01 to 25 nM.
For the compound `CCc1nc2ccc(N3CCC(N4CCCCC4)C3)nn2c1N(C)c1nc(-c2ccc(F)cc2)cs1` (stereo not shown) [Cpd 151, N-(2-ethyl-6-(3-(piperidin-1-yl)pyrrolidin-1-yl)imidazo[1,2-b]pyridazin-3-yl)-4-(4-fluorophenyl)-N-methylthiazol-2-amine], the values for the IC50 on hENPP2 [1] and against hENPP2 [2] were above 1000 nM and 0.01 to 25 nM, respectively.
For `CCc1nc2ccc(N3CCCC(C(N)=O)C3)nn2c1N(C)c1nc(-c2ccc(F)cc2)cs1` (stereo not shown) [Cpd 99, 1-(2-ethyl-3-((4-(4-fluorophenyl)thiazol-2-yl)(methyl)amino)imidazo[1,2-b]pyridazin-6-yl)piperidine-3-carboxamide], the values for the IC50 against hENPP2 [1] and against hENPP2 [2] were above 1000 nM and 0.01 to 25 nM, respectively.
On to `CCc1nc2ccc(N3CCN[C@H](CO)C3)nn2c1N(C)c1nc(-c2ccc(F)cc2)cs1` [Cpd 60, (S)-(4-(2-ethyl-3-((4-(4-fluorophenyl)thiazol-2-yl)(methyl)amino)imidazo[1,2-b]pyridazin-6-yl)piperazin-2-yl)methanol], for which the IC50 against hENPP2 [1] was above 1000 nM; on hENPP2 [2], 0.01 to 25 nM.
For the compound `CCc1nc2ccc(N3CCCC(CN)C3)nn2c1N(C)c1nc(-c2ccc(F)cc2)cs1` (stereo not shown) [Cpd 101, N-(6-(3-(aminomethyl)piperidin-1-yl)-2-ethylimidazo[1,2-b]pyridazin-3-yl)-4-(4-fluorophenyl)-N-methylthiazol-2-amine], the IC50 against hENPP2 [1] was above 1000 nM; on hENPP2 [2], 25 to 50 nM.
In the case of `CCc1nc2ccc(N3CCC(CC(=O)N(C)C)CC3)nn2c1N(C)c1nc(-c2ccc(F)cc2)cs1` [Cpd 108, 2-(1-(2-ethyl-3-((4-(4-fluorophenyl)thiazol-2-yl)(methyl)amino)imidazo[1,2-b]pyridazin-6-yl)piperidin-4-yl)-N,N-dimethylacetamide], the IC50 against hENPP2 [1] is 500 to 1000 nM; at hENPP2 [2], 0.01 to 25 nM.
For `CCc1nc2ccc(N3CCN(CC(=O)N(C)C)CC3)nn2c1N(C)c1nc(-c2ccc(F)cc2)c(CO)s1` [Cpd 43, 2-(4-(2-ethyl-3-((4-(4-fluorophenyl)-5-(hydroxymethyl)thiazol-2-yl)(methyl)amino)imidazo[1,2-b]pyridazin-6-yl)piperazin-1-yl)-N,N-dimethylacetamide], the IC50 on hENPP2 [1] lay in the range of 100 to 500 nM; at hENPP2 [2], 0.01 to 25 nM.
`CCc1nc2ccc(N3CCC(NC(=O)OC(C)(C)C)CC3)nn2c1N(C)c1nc(-c2ccc(F)cc2)cs1` [Cpd 81, tert-butyl 1-(2-ethyl-3-((4-(4-fluorophenyl)thiazol-2-yl)(methyl)amino)imidazo[1,2-b]pyridazin-6-yl)piperidin-4-ylcarbamate]: the IC50 is above 1000 nM on hENPP2 [1] and 0.01 to 25 nM against hENPP2 [2].
For `CCc1nc2ccc(N3CCS(=O)(=O)CC3)nn2c1N(C)c1nc(-c2ccc(F)cc2)cs1` [Compound 79, [6-(1,1-Dioxothiomorpholin-4-yl)-2-ethyl-imidazo[1,2-b]pyridazin-3-yl]-[4-(4-fluoro-phenyl)-thiazol-2-yl]-methyl-amine], the values for the IC50 against hENPP2 [1] and against hENPP2 [2] were above 1000 nM and 25 to 50 nM, respectively.
Turning to `CN(c1nc(-c2ccc(F)cc2)c(C(=O)C(F)(F)F)s1)c1c(CCC#N)nc2ccc(C3CCN(S(C)(=O)=O)CC3)nn12` [Compound 199, 3-(3-((4-(4-fluorophenyl)-5-(2,2,2-trifluoroacetoyl)thiazol-2-yl)(methyl)amino)-6-(1-(methylsulfonyl)piperidin-4-yl)imidazo[1,2-b]pyridazin-2-yl)propanenitrile], the IC50 against hENPP2 [1] is above 1000 nM; against hENPP2 [2], 0.01 to 25 nM.
For `CCc1nc2ccc(N3CCC(NS(C)(=O)=O)C3)nn2c1N(C)c1nc(-c2ccc(F)cc2)cs1` (stereo not shown) [Cpd 137, N-(1-(2-ethyl-3-((4-(4-fluorophenyl)thiazol-2-yl)(methyl)amino)imidazo[1,2-b]pyridazin-6-yl)pyrrolidin-3-yl)methane-sulfonamide], the IC50 on hENPP2 [1] is above 1000 nM; against hENPP2 [2], 0.01 to 25 nM.
For `CCc1nc2ccc(N3CCN(CCNC(C)=O)CC3)nn2c1N(C)c1nc(-c2ccc(F)cc2)cs1` [Cpd 57, N-(2-(4-(2-ethyl-3-((4-(4-fluorophenyl)thiazol-2-yl)(methyl)amino)imidazo[1,2-b]pyridazin-6-yl)piperazin-1-yl)ethyl)acetamide], the IC50 on hENPP2 [1] was in the range of 100 to 500 nM; on hENPP2 [2] it was 0.01 to 25 nM.
On to `CCc1nc2ccc(N3CCCC(CNC(=O)OC(C)(C)C)C3)nn2c1N(C)c1nc(-c2ccc(F)cc2)cs1` (stereo not shown) [Cpd 100, [1-(2-Ethyl-3-{[4-(4-fluoro-phenyl)-thiazol-2-yl]-methyl-amino}-imidazo[1,2-b]pyridazin-6-yl)-piperidin-3-ylmethyl]-carbamic acid tert-butyl ester], for which the IC50 is above 1000 nM on hENPP2 [1] and 0.01 to 25 nM against hENPP2 [2].
As for `CCc1nc2ccc(N3CC4CN(S(=O)(=O)CCCN5CCOCC5)CC4C3)nn2c1N(C)c1nc(-c2ccc(F)cc2)cs1` (stereo not shown) [Compound 127, N-(2-ethyl-6-(5-(3-morpholinopropylsulfonyl)hexahydropyrrolo[3,4-c]pyrrol-2(1H)-yl)imidazo[1,2-b]pyridazin-3-yl)-4-(4-fluorophenyl)-N-methylthiazol-2-amine], the results for the IC50 on hENPP2 [1] and against hENPP2 [2] were above 1000 nM and 0.01 to 25 nM, respectively.
Taken in the same sequence, the figures for `CCc1nc2ccc(N3CCC(C(=O)O)CC3)nn2c1N(C)c1nc(-c2ccc(F)cc2)cs1` [Compound 96, 1-(2-ethyl-3-((4-(4-fluorophenyl)thiazol-2-yl)(methyl)amino)imidazo[1,2-b]pyridazin-6-yl)piperidine-4-carboxylic acid] were above 1000 nM and 0.01 to 25 nM.
For the compound `CCc1nc2ccc(N3CCN(CC4CCCO4)CC3)nn2c1N(C)c1nc(-c2ccc(F)cc2)cs1` (stereo not shown) [Cpd 48, N-(2-ethyl-6-(4-((tetrahydrofuran-2-yl)methyl)piperazin-1-yl)imidazo[1,2-b]pyridazin-3-yl)-4-(4-fluorophenyl)-N-methylthiazol-2-amine], the IC50 was 100 to 500 nM against hENPP2 [1] and 0.01 to 25 nM at hENPP2 [2].
Consider `CCc1nc2ccc(N3CCN(CCOC)CC3)nn2c1N(C)c1nc(-c2ccc(F)cc2)cs1` [Cpd 53, N-(2-ethyl-6-(4-(2-methoxyethyl)piperazin-1-yl)imidazo[1,2-b]pyridazin-3-yl)-4-(4-fluorophenyl)-N-methylthiazol-2-amine], for which the figures for the IC50 on hENPP2 [1] and at hENPP2 [2] were above 1000 nM and 0.01 to 25 nM, respectively.

By IC50 is commonly meant the concentration that gives 50% inhibition. Read a low IC50 as greater potency in that assay.

Source of the values: patent US9796719B2, “Compounds and pharmaceutical compositions thereof for the treatment of inflammatory disorders” (GALAPAGOS NV, priority 2013, dated 2017).
